Source: patent US8039514B2, “Sulfonamide compounds and use thereof” (Asahi Kasei Pharma Corporation, priority 2008, dated 2011)
pIC50: −log10 of the molar value.

The compounds below were run against T1, human calcium-sensing receptor (CaSR) (Homo sapiens, UniProt P41180) (assay: intracellular Ca assay, CaSR antagonist activity in HEK293/hCaSR cells). Conditions: Fura2-AM, inhibition of response to calcium chloride ligand solution, read-out: IC50 values according to the intracellular Ca assay (CaSR antagonist activity).
T1 construct: expressed in transfected cells
T1 sequence (P41180 20-1078): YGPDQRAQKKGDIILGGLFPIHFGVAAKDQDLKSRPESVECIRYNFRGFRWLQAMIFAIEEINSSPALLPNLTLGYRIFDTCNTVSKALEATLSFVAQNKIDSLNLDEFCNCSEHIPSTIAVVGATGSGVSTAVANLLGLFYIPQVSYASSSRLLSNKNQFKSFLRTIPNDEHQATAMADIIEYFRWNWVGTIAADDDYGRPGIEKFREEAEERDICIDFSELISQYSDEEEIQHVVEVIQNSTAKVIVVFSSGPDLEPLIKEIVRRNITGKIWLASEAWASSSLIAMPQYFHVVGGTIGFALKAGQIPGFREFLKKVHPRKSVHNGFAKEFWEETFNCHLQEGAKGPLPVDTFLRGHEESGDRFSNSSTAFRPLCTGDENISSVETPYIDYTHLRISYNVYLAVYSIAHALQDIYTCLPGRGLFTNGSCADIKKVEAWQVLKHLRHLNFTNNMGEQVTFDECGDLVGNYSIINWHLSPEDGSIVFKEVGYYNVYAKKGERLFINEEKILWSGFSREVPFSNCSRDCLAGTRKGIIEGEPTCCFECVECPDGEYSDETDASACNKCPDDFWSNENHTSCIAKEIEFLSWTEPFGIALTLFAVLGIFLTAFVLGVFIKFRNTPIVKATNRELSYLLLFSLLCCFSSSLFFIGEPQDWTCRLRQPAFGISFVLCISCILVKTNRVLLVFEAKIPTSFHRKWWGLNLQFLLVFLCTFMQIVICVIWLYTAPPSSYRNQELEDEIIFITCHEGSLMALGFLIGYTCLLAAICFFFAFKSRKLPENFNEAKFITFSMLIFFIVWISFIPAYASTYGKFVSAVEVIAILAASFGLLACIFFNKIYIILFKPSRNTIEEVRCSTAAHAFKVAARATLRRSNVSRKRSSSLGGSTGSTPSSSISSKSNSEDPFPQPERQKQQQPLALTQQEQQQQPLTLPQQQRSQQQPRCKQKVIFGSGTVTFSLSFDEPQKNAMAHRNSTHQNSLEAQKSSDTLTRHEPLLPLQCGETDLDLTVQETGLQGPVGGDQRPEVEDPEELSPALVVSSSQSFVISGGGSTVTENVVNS
Assay type: cell-based
In short: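 HEK293/hCaSR cells were loaded with Fura2-AM and pre-incubated with compound for 160 s at 37° C in HEPES buffer (pH 7.4, 0.8 mM CaCl2), then challenged with calcium ligand solution. Read-out was the peak 340/380 nm fluorescence ratio; inhibition is relative to no-compound (0%) and no-calcium-ligand (100%) controls.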

pIC50, ≥ 6.52:
CCc1cc(-c2cc(CCC(=O)O)ccc2F)ccc1S(=O)(=O)N(C)C[C@H](O)CNC(C)(C)CC1Cc2ccccc2C1 [Exp. 5-21, (R)-3-(4′-(N-(3-(1-(2,3-dihydro-1H-inden-2-yl)-2-methylpropan-2-ylamino)-2-hydroxypropyl)-N-methylsulfamoyl)-3′-ethyl-6-fluorobiphenyl-3-yl)propionic acid]
CN(C[C@H](O)CNC(C)(C)CC1Cc2ccccc2C1)S(=O)(=O)c1ccc(-c2cc(CCC(=O)O)ccc2F)c(F)c1 [Exp. 5-23, (R)-3-(4′-(N-(3-(1-(2,3-dihydro-1H-inden-2-yl)-2-methylpropan-2-ylamino)-2-hydroxypropyl)-N-methylsulfamoyl)-2′,6-difluorobiphenyl-3-yl)propionic acid]
COc1ccc(-c2cc(S(=O)(=O)N(C)C[C@H](O)CNC(C)(C)CC3Cc4ccccc4C3)sc2Cl)cc1CCC(=O)O [Exp. 5-29, (R)-3-(5-(2-chloro-5-(N-(3-(1-(2,3-dihydro-1H-inden-2-yl)-2-methylpropan-2-ylamino)-2-hydroxypropyl)-N-methylsulfamoyl)thiophen-3-yl)-2-methoxyphenyl)propionic acid]
CCc1cc(-c2ccc(OC)c(CCC(=O)O)c2)ccc1S(=O)(=O)N(C)C[C@H](O)CNC(C)(C)CCCc1ccccc1 [Exp. 5-30, (R)-3-(3′-ethyl-4′-(N-(2-hydroxy-3-(2-methyl-5-phenylpentan-2-ylamino)propyl)-N-methylsulfamoyl)-4-methoxybiphenyl-3-yl)propionic acid]
CCc1cc(-c2ccc(CCC(=O)O)c(F)c2)ccc1S(=O)(=O)N(C)C[C@H](O)CNC(C)(C)CC1Cc2ccccc2C1 [Exp. 5-58, (R)-3-(4′-(N-(3-(1-(2,3-dihydro-1H-inden-2-yl)-2-methylpropan-2-ylamino)-2-hydroxypropyl)-N-methylsulfamoyl)-3′-ethyl-3-fluorobiphenyl-4-yl)propionic acid]
CN(C[C@H](O)CNC(C)(C)CC1Cc2ccccc2C1)S(=O)(=O)c1ccc(-c2ccc(CCC(=O)O)c(F)c2)c(Cl)c1 [Exp. 5-59, (R)-3-(2′-chloro-4′-(N-(3-(1-(2,3-dihydro-1H-inden-2-yl)-2-methylpropan-2-ylamino)-2-hydroxypropyl)-N-methylsulfamoyl)-3-fluorobiphenyl-4-yl)propionic acid]
CN(C[C@H](O)CNC(C)(C)CC1Cc2ccccc2C1)S(=O)(=O)c1ccc(-c2ccc(F)c(CCC(=O)O)c2)cc1C(F)(F)F [Exp. 5-62, (R)-3-(4′-(N-(3-(1-(2,3-dihydro-1H-inden-2-yl)-2-methylpropan-2-ylamino)-2-hydroxypropyl)-N-methylsulfamoyl)-4-fluoro-3′-(trifluoromethyl)biphenyl-3-yl)propionic acid]
CCc1cc(-c2c(F)cccc2CCC(=O)O)ccc1S(=O)(=O)N(C)C[C@H](O)CNC(C)(C)CCCc1ccccc1 [Exp. 5-74, (R)-3-(3′-ethyl-6-fluoro-4′-(N-(2-hydroxy-3-(2-methyl-5-phenylpentan-2-ylamino)propyl)-N-methylsulfamoyl)biphenyl-2-yl)propionic acid]
CCc1cc(-c2ccc(CCCC(=O)O)cc2)ccc1S(=O)(=O)N(C)C[C@H](O)CNC(C)(C)CCCc1ccccc1 [Exp. 5-77, (R)-4-(3′-ethyl-4′-(N-(2-hydroxy-3-(2-methyl-5-phenylpentan-2-ylamino)propyl)-N-methylsulfamoyl)biphenyl-4-yl)butanoic acid]
Cc1cc(CCC(=O)O)sc1-c1cc(C(F)(F)F)cc(S(=O)(=O)N(C)C[C@H](O)CNC(C)(C)CCCc2ccccc2)c1 [Exp. 6-1, (R)-3-(5-(3-(N-(2-hydroxy-3-(2-methyl-5-phenylpentan-2-ylamino)propyl)-N-methylsulfamoyl)-5-(trifluoromethyl)phenyl)-4-methylthiophen-2-yl)propionic acid]
CN(C[C@H](O)CNC(C)(C)CCCc1ccccc1)S(=O)(=O)c1c(Cl)cc(-c2cccc(CCC(=O)O)c2)cc1Cl [Exp. 6-6, (R)-3-(3′,5′-dichloro-4′-(N-(2-hydroxy-3-(2-methyl-5-phenylpentan-2-ylamino)propyl)-N-methylsulfamoyl)biphenyl-3-yl)propionic acid]
CN(C[C@H](O)CNC(C)(C)CC1Cc2ccccc2C1)S(=O)(=O)c1cc(-c2ccc(CCC(=O)O)s2)cc(C(F)(F)F)c1 [Exp. 8-1, (R)-3-(5-(3-(N-(3-(1-(2,3-dihydro-1H-inden-2-yl)-2-methylpropan-2-ylamino)-2-hydroxypropyl)-N-methylsulfamoyl)-5-(trifluoromethyl)phenyl)thiophen-2-yl)propionic acid]
CCc1cc(-c2c(F)cccc2CCC(=O)O)ccc1S(=O)(=O)N(C)C[C@H](O)CNC(C)(C)CCCc1ccsc1 [Exp. 8-24, (R)-3-(3′-ethyl-6-fluoro-4′-(N-(2-hydroxy-3-(2-methyl-5-(thiophen-3-yl)pentan-2-ylamino)propyl)-N-methylsulfamoyl)biphenyl-2-yl)propionic acid]
CN(C[C@H](O)CNC(C)(C)CCCc1ccccc1)S(=O)(=O)c1cc(-c2cccc(CCC(=O)O)c2)cc(C(F)(F)F)c1 [Exp. 9-55, (R)-3-(3′-(N-(2-hydroxy-3-(2-methyl-5-phenylpentan-2-ylamino)propyl)-N-methylsulfamoyl)-5′-(trifluoromethyl)biphenyl-3-yl)propionic acid]
CN(C[C@H](O)CNC(C)(C)CCCc1ccccc1)S(=O)(=O)c1cc(-c2ccc(CCC(=O)O)cc2)cc(C(F)(F)F)c1 [Exp. 9-56, (R)-3-(3′-(N-(2-hydroxy-3-(2-methyl-5-phenylpentan-2-ylamino)propyl)-N-methylsulfamoyl)-5′-(trifluoromethyl)biphenyl-4-yl)propionic acid]
CN(C[C@H](O)CNC(C)(C)CCCc1ccsc1)S(=O)(=O)c1cc(-c2cccc(CCC(=O)O)c2)cc(C(F)(F)F)c1 [Exp. 9-73, (R)-3-(3′-(N-(2-hydroxy-3-(2-methyl-5-(thiophen-3-yl)pentan-2-ylamino)propyl)-N-methylsulfamoyl)-5′-(trifluoromethyl)biphenyl-3-yl)propionic acid]
CN(C[C@H](O)CNC(C)(C)CCCc1ccsc1)S(=O)(=O)c1cc(-c2ccc(CCC(=O)O)cc2)cc(C(F)(F)F)c1 [Exp. 9-75, (R)-3-(3′-(N-(2-hydroxy-3-(2-methyl-5-(thiophen-3-yl)pentan-2-ylamino)propyl)-N-methylsulfamoyl)-5′-(trifluoromethyl)biphenyl-4-yl)propionic acid]
CCc1cc(-c2ccc(CCC(=O)O)cc2)ccc1S(=O)(=O)N(C)C[C@H](O)CNC(C)(C)CCCc1ccccc1F [Exp. 9-89, (R)-3-(3′-ethyl-4′-(N-(3-(5-(2-fluorophenyl)-2-methylpentan-2-ylamino)-2-hydroxypropyl)-N-methylsulfamoyl)biphenyl-4-yl)propionic acid]
